For experiment [1], the target named is T1, mouse TRPV4 (Mus musculus, UniProt Q9EPK8).
T1 construct: expressed in transfected cells; host or cells: HEK293 (ATCC CRL-1573; elsewhere called HEK293T), transient, Lipofectamine 2000
As to the kind of experiment: Live-cell Fura-2 Ca2+ imaging in HEK293T cells transiently transfected with mouse TRPV4 (TRPV4-HEK293 cells). Format: cell-based. Particulars: for Ca2+ influx in the presence of GSK219: agonist 30 nM, pre- and co-applied 100 nM GSK219; for Hill coefficient: concentration-response curve; for Ca2+ influx (F340/F380): 30 nM, 2 min. As to the method:
HEK293 cells were purchased from ATCC (ATCC CRL-1573; Manassas, VA, USA). As previously reported, the cells were tested for mycoplasma contamination before being cultured in the laboratory and grown as a monolayer in Dulbecco’s modified Eagle’s medium (DMEM) (Life Technologies, Carlsbad, CA, USA), supplemented with 10% fetal bovine serum (FBS; Life Technologies), 100 units/mL penicillin, and 100 μg/mL streptomycin. The cells were maintained in a humidified incubator at 37°C under 5% CO2. The cDNAs for mouse TRPV4 (mTRPV4) were transiently transfected into HEK293 cells for at least 24 hours using Lipofectamine 2000 (Invitrogen, Waltham, MA, USA).
(§1) Fura-2-based ratiometric measurements of intracellular calcium concentration ([Ca^2+]i) were performed as previously described. HEK293T cells transiently transfected with mTRPV4, primary keratinocytes, and macrophages were loaded with 4 μM Fura-2 AM (Life Technologies) in culture medium at 37°C for 60 minutes. The cells were then washed three times and incubated in Hanks’ balanced salt solution (HBSS) at room temperature for 30 minutes before use. Fluorescence intensities were measured at excitation wavelengths of 340 nm and 380 nm using an inverted Leica fluorescence microscope equipped with excitation filter wheels (340 nm, 360 nm, and 380 nm). The data were captured using LAS X imaging software (Leica Microsystems, Wetzlar, Germany). The Fura-2 ratios (F340/F380) were used to indicate changes in intracellular calcium ion concentrations ([Ca^2+]i) in response to stimulation. These values were derived from time-lapse imaging of each coverslip. The baseline of the cells was measured in the resting state, and once the value stabilized, the cells were treated with drugs. If no significant difference in the cell baseline was observed, cell viability was considered consistent. The activation threshold was defined as three standard deviations (SDs) above the mean, which corresponds to approximately 20% above the baseline.
GSK101 and the compounds were dissolved to create a concentration gradient (0.3 nM, 3 nM, 30 nM, 100 nM, 0.3 μM, 3 μM, 30 μM, 300 μM). Live-cell calcium imaging experiments were performed using fura-2-labeled TRPV4-HEK293 cells, and the fluorescence curves were recorded for each concentration of the compounds. The experiments were repeated three times, with the number of live cells in each field of view exceeding 100. The real-time fluorescence intensity curves from each experiment were statistically analyzed to calculate the cell response rate (the percentage of cells showing a fluorescence increase greater than 20% above baseline relative to the total number of cells). The concentration-response curves were fitted using GraphPad Prism (with the logarithm of concentration on the X-axis and the response rate on the Y-axis), and the Hill coefficient and EC50 values for each compound were automatically output.
To evaluate the efficacy of these synthetic analogues in vitro, we assessed their ability to activate TRPV4 using a Ca^2+ imaging assay. Because of the low expression of TRPV4 in native cells, we utilized a heterologous expression system and conducted Ca^2+ imaging in HEK293T cells that were transiently transfected with mouse TRPV4 (TRPV4-HEK293 cells).

The target of experiment [2] is T2, TRPV4 in primary keratinocytes (Mus musculus, UniProt Q9EPK8).
T2 construct: endogenous in cells; host or cells: primary keratinocytes of neonatal (P0-P2) mice
T2 sequence (Q9EPK8 whole entry): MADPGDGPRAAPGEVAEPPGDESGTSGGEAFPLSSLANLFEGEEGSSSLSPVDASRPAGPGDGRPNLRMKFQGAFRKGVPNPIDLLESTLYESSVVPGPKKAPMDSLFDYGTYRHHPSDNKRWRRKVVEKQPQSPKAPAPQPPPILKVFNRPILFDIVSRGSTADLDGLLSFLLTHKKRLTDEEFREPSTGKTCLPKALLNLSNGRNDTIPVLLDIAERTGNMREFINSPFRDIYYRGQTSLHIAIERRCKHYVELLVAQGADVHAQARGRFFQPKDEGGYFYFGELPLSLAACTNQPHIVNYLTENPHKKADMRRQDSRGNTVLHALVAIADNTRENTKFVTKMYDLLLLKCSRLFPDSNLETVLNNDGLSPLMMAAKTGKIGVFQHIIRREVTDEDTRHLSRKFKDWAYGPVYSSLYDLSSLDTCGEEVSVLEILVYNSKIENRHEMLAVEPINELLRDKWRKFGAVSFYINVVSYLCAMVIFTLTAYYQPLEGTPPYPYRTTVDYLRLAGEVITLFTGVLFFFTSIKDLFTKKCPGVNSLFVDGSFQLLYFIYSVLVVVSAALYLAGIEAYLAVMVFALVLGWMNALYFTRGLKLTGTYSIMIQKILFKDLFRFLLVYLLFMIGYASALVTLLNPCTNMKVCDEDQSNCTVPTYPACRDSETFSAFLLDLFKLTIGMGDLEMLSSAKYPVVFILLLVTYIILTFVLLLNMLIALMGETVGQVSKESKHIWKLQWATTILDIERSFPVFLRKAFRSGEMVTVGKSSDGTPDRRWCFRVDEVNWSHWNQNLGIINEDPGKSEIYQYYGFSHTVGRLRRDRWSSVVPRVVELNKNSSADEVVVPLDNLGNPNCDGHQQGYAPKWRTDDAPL
As to the kind of experiment: Live-cell Ca2+ imaging in primary keratinocytes of neonatal TRPV4+/+ mice. Particulars: for [Ca2+]i response: 0.3 μM. The class given is cell-based. The protocol: Mice (P0-P2) were sacrificed and soaked in 10% povidone-iodine for 5 min. After being rinsed with 70% ethanol multiple times, the skin was removed and placed in a Petri dish containing PBS solution with 0.25% dispase II and incubated at 4°C overnight. The epidermis was then separated from the subcutaneous tissues, and keratinocytes were separated from the epidermis using a cell scraper and collected in 2 mL mouse keratinocyte media (Life Technologies). Dissociated cells were transferred to a 15% BSA column (1 mL) and centrifuged for 5 min at 1000 rpm. The cells were resuspended and seeded in […] Petri dishes containing 8-9 culture slides and placed in the culture incubator.
as §1, with “baseline. […]” for “baseline.”

For experiment [3], the system named is C57BL/6J mice. Nature of the experiment: Acute itch test (intradermal injection into the nape, scratches in 30 min). The class given is in vivo, mouse. Conditions: 50 µL intradermal, wild-type mice. As to the method: (§2) Eighty adult male wild-type C57BL/6J mice and thirty TRPV4 knockout C57BL/6J mice (weighing 23-25g) were purchased from Gem Pharmatech (Nanjing, China) and maintained under a 12-hour light-dark cycle at 24°C. For all experiments, mice aged 8 to 12 weeks were utilized and acclimatized to the experimental room one week before the experiments. The mice were assigned to the experimental and control groups (5 mice/group) using a computer-generated table of random numbers (0-10), as well as the sequence of dosing and measurement. All behavioral tests were recorded from a side view, and the evaluations were carried out by observers who were unaware of the animals' treatment and genotype.
Under 1 to 2% isoflurane anesthesia, the mice were shaved on the nape of the neck 5 to 7 days prior to the experiment. For all itch behavior experiments, the mice were acclimated in red plastic chambers for two days before measurements, with acclimation sessions lasting 2 hours on the first day and 1.5 hours on the day of measurement. GSK101 (30 μM) and the test compounds (30 μM and 300 μM) were formulated in 0.9% saline and administered via intradermal injection to the nape of the neck at a volume of 50 μL. […] Acute chemical itch was evaluated by counting the number of scratches within the 30-minute recording period.

For experiment [4], the system named is C57BL/6J mice. Nature of the experiment: Mechanical pain test (von Frey, intraplantar injection). The class given is in vivo, mouse. The protocol: as §2
The mice were allowed to acclimate for 1.5 hours in red plastic enclosures on a metal mesh platform. The test compounds (30 μM) were formulated in 0.9% saline solution and administered via intraplantar injection with a volume of 10 μL. Calibrated von Frey filaments (0.02, 0.04, 0.07, 0.16, 0.4, 0.6, 1.0, 1.4, and 2.0 g) were applied perpendicularly to the plantar surfaces of the mice's hind paws for up to 2 seconds, with sufficient force to cause the filament to bend. Brisk withdrawal or flinching of the hind paw during or immediately after application was considered a positive response. […] The threshold force required to elicit paw withdrawal (50% mechanical threshold) was obtained using the up-down method.

For experiment [5], the target named is T3, TRPV4 in peritoneal macrophages (Mus musculus, UniProt Q9EPK8).
T3 construct: endogenous in cells; host or cells: freshly dissociated murine peritoneal macrophages
T3 sequence (Q9EPK8 whole entry): as above
As to the kind of experiment: Live-cell Ca2+ imaging in freshly dissociated peritoneal macrophages from TRPV4+/+ mice. The class given is cell-based. Conditions: for [Ca2+]i response: 0.3 μM. As to the method:
Peritoneal macrophages were isolated as previously described. The mice were euthanized by cervical dislocation, and their abdomens were dissected in the middle. Six milliliters of cold phosphate-buffered saline (PBS) was instilled into the peritoneal cavity, followed by gentle massage and subsequent aspiration. The samples were centrifuged for 5 min at 4°C and 300 g, resuspended in 2 mL PBS, and filtered using […] cell strainers. After another centrifugation, the cell suspensions were seeded in […] Petri dishes containing 8-9 culture slides and placed in a culture incubator (37°C, 5% CO2).
as §1, with “baseline. […]” for “baseline.”

Where [6] appears, read: dose-response of cell response rate, TRPV4-HEK293 cells, read-out: EC50.
[7] abbreviates: GSK219 1 μM pre- and co-applied.

Here are results for twelve molecules from publication PMC12606608, “Identification of Novel Selective Transient Receptor Potential Vanilloid 4 (TRPV4) Agonists” (Current Pharmaceutical Design, 2025).

Usually Hill coefficient stands for a measure of the steepness of the concentration-response curve. The EC50 is the concentration needed to bring the measured effect to its halfway point.

SMILES strings stand for the structures. Entries after “also recorded” stand apart in the source; their conditions may differ. Like-named read-outs stand apart in the source and are kept apart here.

T1 sequence (Q9EPK8 whole entry): as above

Turning to `CC(C)CC(NC(=O)c1cc2ccccc2s1)C(=O)N1CC2COCC(C1)N2C(=O)C(CO)NS(=O)(=O)c1ccc(Cl)cc1Cl` (stereo not drawn) [GM1009], the “Ca2+ influx in the presence of GSK219” value in experiment [1] is recorded as “abolished”. In addition, the Hill coefficient in experiment [1] (TRPV4-HEK293 cells) is recorded as 0.2998. Further, the EC50 in experiment [1] (setting [6]) stood at 85.6 µM.
As for `CC(C)C[C@H](NC(=O)c1cc2ccccc2s1)C(=O)N1CCN(C(=O)[C@H](CO)NS(=O)(=O)c2ccc(Cl)cc2Cl)CC1` [GSK101, N-((1S)-1-{[4-((2S)-2-{[(2,4-dichlorophenyl)sulfonyl]amino}-3-hydroxypropanoyl)-1-piperazinyl]carbonyl}-3-methylbutyl)-1-benzothiophene-2-carboxamide, reference compound], in experiment [1], the response was half-maximal at 0.0137 µM (EC50) and the “Ca2+ influx in the presence of GSK219” value was “abolished”. In experiment [1] (TRPV4-HEK293 cells), the “Ca2+ influx (F340/F380)” value is “produced a Ca^2+ influx of different strengths” and the Hill coefficient came out at 0.9273. Further, in experiment [2], the “[Ca2+]i response” value was “induced a significant TRPV4-mediated calcium response”. For the same molecule, the “Number of scratching bouts within 30 minutes (average)” value in experiment [3] (30 μM) is reported as 50. For the same molecule, the “Number of scratches within 30 minutes (average)” value in experiment [3] (300 µM) worked out at 88. Moreover, the “Mechanical hyperalgesia (paw withdrawal) vs control group” value in experiment [4] (30 µM, 10 µL intraplantar, wild-type mice) is “significantly induced mechanical hyperalgesia”. Further, the “[Ca2+]i response” value in experiment [5] is recorded as “induced a significant TRPV4-mediated calcium response”.
Regarding `CC(C)CC(NC(=O)c1cc2ccccc2s1)C(=O)N1CCN(C(=O)C(CO)NC(=O)c2ccc(Cl)cc2Cl)CC1` (stereo not drawn) [LM0024], in experiment [1], the “Ca2+ influx in the presence of GSK219” value is listed as “abolished”. Also, the Hill coefficient in experiment [1] (TRPV4-HEK293 cells) is recorded as 0.7036. For the same molecule, the concentration for a half-maximal effect (EC50) in experiment [1] (setting [6]) is 20 µM.
Regarding `CC(C)CC(NC(=O)c1cc2ccccc2s1)C(=O)N1CC2(C1)CN(C(=O)C(CO)NS(=O)(=O)c1ccccc1)C2` (stereo not drawn) [LM6147], the “Ca2+ influx in the presence of GSK219” value in experiment [1] is “abolished”. Further, in experiment [1] (TRPV4-HEK293 cells), the Hill coefficient came to 1.1150. Besides, the concentration for a half-maximal effect (EC50) in experiment [1] (setting [6]) came to 6.08 µM.
`CC(C)CC(NC(=O)c1cc2ccccc2s1)C(=O)N1CC2(C1)CN(C(=O)C(CO)NS(=O)(=O)c1ccc(Cl)cc1)C2` (stereo not drawn) [LM6140]: the “Ca2+ influx (F340/F380)” value in experiment [1] (TRPV4-HEK293 cells) was “no measurable current”.
For the molecule `CC(C)C[C@H](NC(=O)c1cc2ccccc2s1)C(=O)N1CC2CCC(C1)N2C(=O)C(CO)NS(=O)(=O)c1ccc(Cl)cc1Cl` (stereo partly drawn) [GM1004], the “Ca2+ influx in the presence of GSK219” value in experiment [1] is “abolished”. The molecule further yielded a Hill coefficient in experiment [1] (TRPV4-HEK293 cells) of 1.1650. For the same molecule, the EC50 in experiment [1] (setting [6]) is 11.5 µM.
As for `O=C(NC1(c2ccccc2)CC1)c1c(CN2CCC(N3CCCCC3)CC2)c(-c2cccc(C(F)(F)F)c2)nc2cc(Br)ccc12` [GSK219, reference compound], in experiment [1] (100 nM GSK219 pre- and co-applied, TRPV4-HEK293 cells), the “Inhibition of agonist-induced Ca2+ influx” value was “abolished the action of GSK101 and compounds”. Also, the “Inhibition of agonist-elicited [Ca2+]i response” value in experiment [2] (setting [7]) and in experiment [5] (setting [7]) was “abolished the GSK101 action” throughout. The “Block of compound-induced pain-like behavior” value in experiment [4] (GSK219 intraperitoneally 30 minutes before plantar injection of compounds (30 µM)) is recorded as “blocked the pain-like behavior induced by GSK101 derivatives”.
As to `C[C@H](CCC(=O)O)C[C@H](C)C[C@H](C)C(=O)/C=C(\O)[C@H](C)C[C@H](C)C/C=C/[C@@H](C)[C@@H](O)[C@@H](C)[C@@H](O)C[C@@H]1CC[C@@](C)([C@H]2CC[C@@](C)([C@@H](C)O)O2)O1` [ionomycin, reference compound], the “Intracellular calcium concentration (positive control)” value in experiment [1] (1 μM ionomycin, TRPV4-HEK293 cells) is “rapidly and significantly increased intracellular calcium concentration”.
In the case of `CC(C)CC(NC(=O)c1cc2ccccc2s1)C(=O)N1CC2(C1)CN(C(=O)C(CO)NS(=O)(=O)c1ccccc1Cl)C2` (stereo not drawn) [LM6146], the “Ca2+ influx in the presence of GSK219” value in experiment [1] is on record as “abolished”. Besides, in experiment [1] (TRPV4-HEK293 cells), the Hill coefficient is recorded as 0.3283. Also, the 50% effective concentration (EC50) in experiment [1] (setting [6]) was found to be 78.9 µM. Also, the “Immediate pain-inducing effect compared with GSK101” value in experiment [4] (30 µM intraplantar, 0 h, wild-type mice) is “slightly weaker than that of GSK101”. Further, the “Pain-inducing effect one hour post-injection compared with GSK101” value in experiment [4] (30 µM intraplantar, 1 h, wild-type mice) is reported as “reached a level comparable to GSK101”.
For `CC(C)CC(NC(=O)c1cc2ccccc2s1)C(=O)N1CCCN(C(=O)C(CO)NS(=O)(=O)c2ccc(Cl)cc2Cl)CC1` (stereo not drawn) [LM0038], the “Ca2+ influx in the presence of GSK219” value in experiment [1] is listed as “abolished”. Besides, in experiment [1] (TRPV4-HEK293 cells), the Hill coefficient came to 1.0280. The 50% effective concentration (EC50) in experiment [1] (setting [6]) came to 0.168 µM. Also, the entries for the “[Ca2+]i response” value in experiment [2] and in experiment [5] were “induced a significant TRPV4-mediated calcium response; also recorded: weaker calcium influx than before” and “induced a significant TRPV4-mediated calcium response; also recorded: signals with lower peaks than before”, respectively.
For `CC(C)CC(NC(=O)c1cc2ccccc2s1)C(=O)N1CC2(C1)CN(C(=O)C(CO)NS(=O)(=O)c1cccc(Cl)c1)C2` (stereo not drawn) [LM6142], in experiment [1] (TRPV4-HEK293 cells), the “Ca2+ influx (F340/F380)” value is “no measurable current”.
Still for that read-out and setting: the same measure for `CC(C)CC(NC(=O)c1cc2ccccc2s1)C(=O)N1CCN(C(=O)C(CO)NC(=O)c2ccc(Cl)cc2)CC1` (stereo not drawn) [LM0025]: “no measurable current”.
